Reference: US10981932B2, “Macrocyclic indole derivatives” (Bayer Aktiengesellschaft, priority 2016, dated 2021)
Structures can show the parent of a compound that is named as a salt. Where two headings read alike, the source gives them in different places.

Experiments:
MCL-1 = MCL-1 (Homo sapiens, UniProt Q07820); assay: Protein-protein interaction assay MCL-1/Noxa BH3 peptide (MCL-1 assay), TR-FRET; type: binding; conditions: MBP-MCL-1 / Noxa BH3-derived peptide, median
Outline: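 TR-FRET, 665/622 nm emission ratio (excitation 330–350 nm), measured MCL-1/Noxa complex formation. 1 nM MBP-MCL-1, 50 mM Tris/HCl pH 7, 0.1% BGG, 2 mM DTT. Incubation 1 h at 22 °C, then overnight at 4 °C. IC50 by 4-parameter regression, normalized to DMSO (0%) and no-MCL-1 (100%) controls.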

SUDHL5 [1] = assay: Induction of caspase-3/7 activity (Caspase-Glo 3/7), SUDHL5; type: cell-based; conditions: caspase-3/7 induction, SUDHL5 cells, 3 h treatment, median
Outline: (§1)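 DLBCL cells treated with compounds for 3 h at 37 °C, then caspase-3/7 activity read by Caspase-Glo 3/7 luminescence. Medium-only background subtracted; EC50 fitted with C0 fixed at 1 and top set to the reference compound's maximal induction.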

SUDHL10 [2] = assay: Induction of caspase-3/7 activity (Caspase-Glo 3/7), SUDHL10; type: cell-based; conditions: caspase-3/7 induction, SUDHL10 cells, 3 h treatment, median
Outline: as §1

SUDHL5 [3] = assay: Anti-proliferative effect (CellTiter-Glo, 72 h), SUDHL5; type: cell-based; conditions: SUDHL5 cells, antiproliferation, median, read-out: Antiproli SUDHL5 [M] (median)
Outline: (§2)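 Cells were treated with compounds for 72 h at 37 °C in a humidified incubator, and viability was measured by CellTiter-Glo luminescence. A parallel day 0 plate, read the same way, gave the time zero baseline.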

A2780 = assay: Anti-proliferative effect (CellTiter-Glo, 72 h), A2780; type: cell-based; conditions: A2780 cells, median, read-out: IC50 antiproliferation assay A2780 [M] (median)
Outline: as §2

MV-4-11 = assay: Anti-proliferative effect (CellTiter-Glo, 72 h), MV-4-11; type: cell-based; conditions: MV-4-11 cells, median, read-out: IC50 antiproliferation assay MV-4-11 [M] (median)
Outline: as §2

SUDHL5 [4] = assay: Induction of cytotoxicity (CellTiter-Glo, 5 h), SUDHL5
SUDHL10 [5] = assay: Induction of cytotoxicity (CellTiter-Glo, 5 h), SUDHL10
[6] = Homo sapiens, SU-DHL-5, 72 h, 72 h
[7] = Homo sapiens, SU-DHL10, 5 h, read-out: Cytotox SUDHL10 [M] (median), SUDHL10 cells, cytotoxicity induction, CellTiter-Glo, 5 h, median
[8] = Homo sapiens, SU-DHL-5, 5 h, read-out: Cytotox SUDHL5 [M] (median), SUDHL5 cells, cytotoxicity induction, CellTiter-Glo, 5 h, median
[9] = read-out: Cytotox SUDHL5 [M] (median), SUDHL5 cells, cytotoxicity induction, CellTiter-Glo, 5 h incubation, median
[10] = read-out: Cytotox SUDHL10 [M] (median), SUDHL10 cells, cytotoxicity induction, CellTiter-Glo, 5 h incubation, median

Chain of MCL-1 (Q07820 whole entry): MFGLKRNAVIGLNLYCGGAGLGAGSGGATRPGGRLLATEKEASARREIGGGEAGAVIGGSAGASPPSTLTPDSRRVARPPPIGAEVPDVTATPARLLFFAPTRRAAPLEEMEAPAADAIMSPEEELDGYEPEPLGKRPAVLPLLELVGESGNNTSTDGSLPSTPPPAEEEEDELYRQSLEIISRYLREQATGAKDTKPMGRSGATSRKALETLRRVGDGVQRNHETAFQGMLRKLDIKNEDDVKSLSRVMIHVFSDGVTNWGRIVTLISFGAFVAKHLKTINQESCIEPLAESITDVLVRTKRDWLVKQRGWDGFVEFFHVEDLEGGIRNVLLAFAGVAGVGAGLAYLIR

IC50 (MCL-1)	EC50 (SUDHL5 [1])	EC50 (SUDHL10 [2]; Homo sapiens, SU-DHL10, 3 h)	IC50 (SUDHL5 [3]; [6])	IC50 (A2780; Homo sapiens, A2780, 72 h)	IC50 (MV-4-11)	EC50 (SUDHL5 [1]; Homo sapiens, SU-DHL-5, 3 h)	EC50 (SUDHL10 [2])	IC50 (SUDHL5 [3]; 72 h incubation)	IC50 (A2780)	IC50 (MV-4-11; Homo sapiens, MV4-11, 72 h)	SMILES	IC50 (SUDHL5 [4]; read-out: Cytotox SUDHL5 [M] (median), SUDHL5 cells, cytotoxicity induction, CellTiter-Glo, 5 h, median)	IC50 (SUDHL10 [5]; [7])	IC50 (SUDHL5 [4]; [8])	IC50 (SUDHL10 [5]; read-out: Cytotox SUDHL10 [M] (median), SUDHL10 cells, cytotoxicity induction, CellTiter-Glo, 5 h, median)	IC50 (SUDHL5 [4]; [9])	IC50 (SUDHL10 [5]; [10])
0.343 µM	> 33 µM	> 33 µM	4.2e-06 M	9.45e-06 M	1.2e-05 M	–	–	–	–	–	Cn1nc(COCc2ccc(C#N)cc2)c2c1COCCCCn1c(C(=O)O)c(CCCOc3cccc4ccccc34)c3cccc-2c31 (single isomer, unassigned; enantiomer 1) [Example 347, 3-({[(4-cyanobenzyl)oxy]methyl}-1-methyl-7-[3-(naphthalen-1-yloxy)propyl]-1,10,11,12,13,15-hexahydropyrazolo[4′,3′:9,101][1,6]oxazacycloundecino[8,7,6-hi]indole-8-carboxylic acid-N-ethylethanamine Salt (Enantiomer 1)]	> 3.3e-05 M	> 3.3e-05 M	–	–	–	–
0.0563 µM	> 33 µM	> 33 µM	1.38e-05 M	> 3.3e-05 M	1.53e-05 M	24.3 µM	–	–	–	–	COc1ccc2c(CCCOc3cccc4ccccc34)c(C(=O)O)n3c2c1-c1c(nn(C)c1C)COCCCC3 (single isomer, unassigned; enantiomer 1) [Example 350, 4-methoxy-2,3-dimethyl-7-[3-(naphthalen-1-yloxy)propyl]-2,10,11,12,13,15-hexahydropyrazolo[4′,3′:9,10][1,6]oxazacycloundecino[8,7,6-hi]indole-8-carboxylic acid-N-ethylethanamine Salt (Enantiomer 1)]	–	3.11e-05 M	2.07e-05 M	> 3.3e-05 M	–	–
0.0454 µM	–	> 33 µM	1.19e-05 M	> 3.3e-05 M	1.05e-05 M	> 33 µM	–	–	–	–	COc1ccc2c(CCCOc3cccc4ccccc34)c(C(=O)O)n3c2c1-c1c(C)nn(C)c1COCCCC3 (single isomer, unassigned; enantiomer 1) [Example 352, 4-methoxy-1,3-dimethyl-7-[3-(naphthalen-1-yloxy)propyl]-1,10,11,12,13,15-hexahydropyrazolo[4′,3′:9,10][1,6]oxazacycloundecino[8,7,6-hi]indole-8-carboxylic Acid Ammonium Salt (Enantiomer 1)]	–	> 3.3e-05 M	> 3.3e-05 M	–	–	–
0.0234 µM	23.8 µM	–	–	–	–	–	20.2 µM	8.59e-06 M	1.97e-05 M	1.14e-05 M	Cc1ccc2c(CCCOc3cccc4ccccc34)c(C(=O)O)n3c2c1-c1c(C)nn(C)c1COCCC3 (single isomer, unassigned; enantiomer 2) [Example 026, (−)-9,11,12-trimethyl-1-[3-(naphthalen-1-yloxy)propyl]-5,6,8,9-tetrahydro-4H-pyrazolo[4′,3′:8,9][1,5]oxazecino[7,6,5-hi]indole-2-carboxylic acid-N-ethylethanamine Salt (Enantiomer 2)]	–	–	–	–	2.41e-05 M	2.58e-05 M
0.0312 µM	> 33 µM	–	–	–	1.21e-05 M	–	> 33 µM	1.56e-05 M	2.41e-05 M	–	Cn1nc2c(c1CN1CCOCC1)-c1cccc3c(CCCOc4cccc5ccccc45)c(C(=O)O)n(c13)CCCCOC2 (single isomer, unassigned; enantiomer 2) [Example 080, 2-methyl-3-(morpholin-4-ylmethyl)-7-[3-(naphthalen-1-yloxy)propyl]-2,10,11,12,13,15-hexahydropyrazolo[4′3′:9,10][1,6]oxazacycloundecino[8,7,6-hi]indole-8-carboxylic acid-N-ethylethanamine Salt (Enantiomer 2)]	–	–	–	–	> 3.3e-05 M	> 3.3e-05 M
